According to BindingDB's records for doi:10.1016/j.ejmech.2021.113336 (Zhejiang University, 2021):

Test: Inhibition of P-glycoprotein in human MCF7/ADR cells assessed as reversal fold by measuring reduction in doxorubicin IC50 at 5 uM incubated for 48 hrs by CCK-8 assay

| IC50 [µM] | SMILES |
| --- | --- |
| 9.1 | COc1ccc(-c2ccc(C(=O)N3CCc4cc(OC)c(OC)cc4C3)o2)cc1 |
| 6.7 | COc1cccc(-c2ccc(C(=O)N3CCc4cc(OC)c(OC)cc4C3)o2)c1 |
| 13.5 | COc1cc2c(cc1OC)CN(C(=O)c1ccc(-c3ccccc3OC)o1)CC2 |
| 9.7 | COc1ccc(-c2ccc(C(=O)N3CCc4cc(OC)c(OC)cc4C3)o2)cc1OC |
| 19.8 | COc1cc(OC)cc(-c2ccc(C(=O)N3CCc4cc(OC)c(OC)cc4C3)o2)c1 |
| 18.2 | COc1cc2c(cc1OC)CN(C(=O)c1ccc(-c3cc(OC)c(OC)c(OC)c3)o1)CC2 |
| 15.1 | COc1cc2c(cc1OC)CN(C(=O)c1ccc(-c3cccc(OC)c3OC)o1)CC2 |
| 18.3 | COc1ccc(-c2ccc(C(=O)N3CCc4cc(OC)c(OC)cc4C3)o2)c(OC)c1 |
| 18.8 | COc1ccc(OC)c(-c2ccc(C(=O)N3CCc4cc(OC)c(OC)cc4C3)o2)c1 |
| 15.4 | CCOc1ccc(-c2ccc(C(=O)N3CCc4cc(OC)c(OC)cc4C3)o2)cc1 |
| 44.6 | CCCOc1ccc(-c2ccc(C(=O)N3CCc4cc(OC)c(OC)cc4C3)o2)cc1 |
| 69.6 | COc1cc2c(cc1OC)CN(C(=O)c1ccc(-c3ccc(OC(C)C)cc3)o1)CC2 |
| 62.7 | CCCCOc1ccc(-c2ccc(C(=O)N3CCc4cc(OC)c(OC)cc4C3)o2)cc1 |
| 50.9 | COc1cc2c(cc1OC)CN(C(=O)c1ccc(-c3ccc(OCC(C)C)cc3)o1)CC2 |
| 62.7 | COc1cc2c(cc1OC)CN(C(=O)c1ccc(-c3ccc(OC(C)(C)C)cc3)o1)CC2 |
| 11.7 | COc1cc2c(cc1OC)CN(C(=O)c1ccc(-c3ccc(OC(F)(F)F)cc3)o1)CC2 |
| 42 | COc1cc2c(cc1OC)CN(C(=O)c1ccc(-c3ccc(Oc4ccccc4)cc3)o1)CC2 |
| 8.4 | COc1cc2c(cc1OC)CN(C(=O)c1ccc(-c3ccc4c(c3)OCO4)o1)CC2 |
| 64.4 | COc1cc2c(cc1OC)CN(C(=O)c1ccc(-c3ccc(SC(C)C)cc3)o1)CC2 |
